In patent publication US20210253575A1, “PYRROLIDINE AMINE COMPOUNDS FOR THE TREATMENT OF AUTOIMMUNE DISEASE” (Hoffmann-La Roche Inc., priority 2018, published 2021):

target: T1, human TLR8 (Homo sapiens, UniProt Q9NR97); assay: HEK293-Blue-hTLR-8 cells assay (SEAP reporter, R848 stimulation); type: cell-based; conditions: HEK293-Blue-hTLR8 cells, R848 ligand, 20 hrs incubation
T1 sequence (Q9NR97 27-1041): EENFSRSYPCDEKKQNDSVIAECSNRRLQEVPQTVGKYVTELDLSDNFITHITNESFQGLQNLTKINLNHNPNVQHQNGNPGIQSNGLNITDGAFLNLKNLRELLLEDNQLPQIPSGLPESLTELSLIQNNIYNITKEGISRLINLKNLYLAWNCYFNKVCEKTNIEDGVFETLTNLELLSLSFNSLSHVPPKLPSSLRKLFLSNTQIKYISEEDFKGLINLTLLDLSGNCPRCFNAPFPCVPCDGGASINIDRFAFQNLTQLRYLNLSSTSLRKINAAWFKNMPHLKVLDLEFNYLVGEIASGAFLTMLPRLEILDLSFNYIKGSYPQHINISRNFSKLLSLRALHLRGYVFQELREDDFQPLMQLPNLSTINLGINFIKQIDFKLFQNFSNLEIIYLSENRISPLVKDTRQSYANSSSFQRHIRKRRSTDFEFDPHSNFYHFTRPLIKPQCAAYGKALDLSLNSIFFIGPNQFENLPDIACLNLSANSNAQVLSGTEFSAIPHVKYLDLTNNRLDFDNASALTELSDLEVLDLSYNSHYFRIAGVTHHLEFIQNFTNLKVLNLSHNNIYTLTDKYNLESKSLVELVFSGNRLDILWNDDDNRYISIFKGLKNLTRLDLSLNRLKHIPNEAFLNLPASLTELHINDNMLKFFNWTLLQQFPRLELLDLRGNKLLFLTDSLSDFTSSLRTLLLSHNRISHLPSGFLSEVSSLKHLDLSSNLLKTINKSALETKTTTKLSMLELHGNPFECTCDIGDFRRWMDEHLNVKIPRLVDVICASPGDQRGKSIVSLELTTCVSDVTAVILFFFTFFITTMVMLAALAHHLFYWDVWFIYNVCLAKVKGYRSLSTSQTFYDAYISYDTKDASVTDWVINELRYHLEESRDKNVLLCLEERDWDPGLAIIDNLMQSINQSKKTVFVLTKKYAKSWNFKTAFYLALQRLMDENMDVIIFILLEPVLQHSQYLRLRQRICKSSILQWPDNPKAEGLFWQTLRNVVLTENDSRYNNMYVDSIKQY
Experimental: The following tests were carried out in order to determine the activity of the compounds of formula (I) in HEK293-Blue-hTLR-7/8/9 cells assay.
HEK293-Blue-hTLR-8 Cells Assay:
A stable HEK293-Blue-hTLR-8 cell line was purchased from InvivoGen (Cat. #: hkb-htlr8, San Diego, Calif., USA). These cells were originally designed for studying the stimulation of human TLR8 by monitoring the activation of NF-κB. A SEAP (secreted embryonic alkaline phosphatase) reporter gene was placed under the control of the IFN-β minimal promoter fused to five NF-κB and AP-1-binding sites. The SEAP was induced by activating NF-κB and AP-1 via stimulating HEK-Blue hTLR8 cells with TLR8 ligands. Therefore the reporter expression was declined by TLR8 antagonist under the stimulation of a ligand, such as R848, for incubation of 20 hrs. The cell culture supernatant SEAP reporter activity was determined using QUANTI-Blue™ kit (Cat. #: rep-qb1, Invivogen, San Diego, Ca, USA) at a wavelength of 640 nm, a detection medium that turns purple or blue in the presence of alkaline phosphatase.
HEK293-Blue-hTLR8 cells were incubated at a density of 250,000˜450,000 cells/mL in a volume of 170 μL in a 96-well plate in Dulbecco's Modified Eagle's medium (DMEM) containing 4.5 g/L glucose, 50 U/mL penicillin, […], […], 2 mM L-glutamine, 10% (v/v) heat-inactivated fetal bovine serum with addition of 20 μL test compound in a serial dilution in the presence of final DMSO at 1% and 10 μL of 60 uM R848 in above DMEM, perform incubation under 37° C. in a CO2 incubator for 20 hrs. Then 20 μL of the supernatant from each well was incubated with 180 μL Quanti-blue substrate solution at 37° C. for 2 hrs and the absorbance was read at 620-655 nm using a spectrophotometer. The signalling pathway that TLR8 activation leads to downstream NF-κB activation has been widely accepted, and therefore similar reporter assay was modified for evaluating TLR8 antagonist.

C[C@@H]1CN(c2ccc(C(F)(F)F)c3nccnc23)C[C@H]1CN1CCC(N2CCCCC2)CC1 (relative stereo) [Example 33, 5-[Trans-3-methyl-4-[[4-(1-piperidyl)-1-piperidyl]methyl]pyrrolidin-1-yl]-8-(trifluoromethyl)quinoxaline] and C[C@@H]1CN(c2ccc(C(F)(F)F)c3nccnc23)C[C@H]1CN1CCC2(CCNCC2)CC1 (relative stereo) [Example 21, 3-[[Trans-4-methyl-1-[8-(trifluoromethyl)quinoxalin-5-yl]pyrrolidin-3-yl]methyl]-3,9-diazaspiro[5.5]undecane] are within 1.5-fold of each other in IC50: 245 nM for the first, 351 nM for the second.

Compared with C[C@@H]1CN(c2ccc(C(F)(F)F)c3nccnc23)C[C@H]1CNC1CCCNCC1 (stereo partly drawn) [Example 40], FC(F)(F)c1ccc(N2C[C@@H](CN3CCC4(CCNC4)C3)[C@H](C(F)(F)F)C2)c2nccnc12 (relative stereo) [Example 19, 5-[Trans-3-(2,7-diazaspiro[4.4]nonan-2-ylmethyl)-4-(trifluoromethyl)pyrrolidin-1-yl]-8-(trifluoromethyl)quinoxaline] is 2.9-fold lower in IC50: 742 nM for the first, 253 nM for the second.

First: N#Cc1ccc(N2C[C@H](CN3CCC4(CCNC4)C3)[C@@H](C(F)(F)F)C2)c2nccnc12 (stereo partly drawn) [Example 5, 8-[(3S,4R)-3-(2,7-diazaspiro[4.4]nonan-2-ylmethyl)-4-(trifluoromethyl)pyrrolidin-1-yl]quinoxaline-5-carbonitrile]
Second: C[C@H]1CN(c2ccc(C#N)c3nccnc23)C[C@@H]1CN1CCC2(CCNC2)C1 (stereo partly drawn) [Example 30, 8-[(3S,4R)-3-(2,7-diazaspiro[4.4]nonan-2-ylmethyl)-4-methyl-pyrrolidin-1-yl]quinoxaline-5-carbonitrile]
The IC50 of the first is 2.1-fold lower: 35 nM for the first, 72 nM for the second.

Going from N#Cc1ccc(N2CC(CN3CCC(N4CCCCC4)CC3)C3(CC3)C2)c2nccnc12 (stereo not drawn) [Example 11, 8-[7-[[4-(1-Piperidyl)-1-piperidyl]methyl]-5-azaspiro[2.4]heptan-5-yl]quinoxaline-5-carbonitrile] to N#Cc1ccc(N2CC(CN3CCC(N4CCOCC4)CC3)C3(CC3)C2)c2nccnc12 (stereo not drawn) [Example 58, 8-[7-[(4-Morpholino-1-piperidyl)methyl]-5-azaspiro[2.4]heptan-5-yl]quinoxaline-5-carbonitrile], the IC50 rises from 24 nM to 91 nM (3.8-fold). The first is the more potent here.

N#Cc1ccc(N2C[C@H](CN3CCC(N)CC3)[C@@H](C(F)(F)F)C2)c2nccnc12 [Example 51, 8-[(3S,4R)-3-[(4-amino-1-piperidyl)methyl]-4-(trifluoromethyl)pyrrolidin-1-yl]quinoxaline-5-carbonitrile] and N#Cc1ccc(N2C[C@H](CN3CCC(CN)CC3)[C@@H](C(F)(F)F)C2)c2nccnc12 [Example 74, 8-[(3S,4R)-3-[[4-(aminomethyl)-1-piperidyl]methyl]-4-(trifluoromethyl)pyrrolidin-1-yl]quinoxaline-5-carbonitrile] are within 1.5-fold of each other in IC50: 57 nM for the first, 55 nM for the second.

N#Cc1ccc(N2C[C@H](CN3CCC4(CCNCC4)CC3)[C@@H](C(F)(F)F)C2)c2cccnc12 [Example 2, 5-[(3S,4R)-3-(3,9-diazaspiro[5.5]undecan-3-ylmethyl)-4-(trifluoromethyl)pyrrolidin-1-yl]quinoline-8-carbonitrile] and N#Cc1ccc(N2C[C@H](CN3CCC4(CCCNC4)CC3)[C@@H](C(F)(F)F)C2)c2cccnc12 [Example 55, 5-[(3S,4R)-3-(2,9-Diazaspiro[5.5]undecan-9-ylmethyl)-4-(trifluoromethyl)pyrrolidin-1-yl]quinoline-8-carbonitrile] are within 1.5-fold of each other in IC50: 57 nM for the first, 42 nM for the second.

Compared with N#Cc1ccc(N2C[C@@H](CN3CCC4(CCNC4)C3)[C@H](C(F)F)C2)c2cccnc12 (relative stereo) [Example 34, 5-[Trans-3-(2,7-diazaspiro[4.4]nonan-2-ylmethyl)-4-(difluoromethyl)pyrrolidin-1-yl]quinoline-8-carbonitrile], C[C@H]1CN(c2ccc(C#N)c3ncccc23)C[C@@H]1CN1CCC2(CCNC2)C1 (stereo partly drawn) [Example 35, 5-[(3S,4R)-3-(2,7-diazaspiro[4.4]nonan-2-ylmethyl)-4-methyl-pyrrolidin-1-yl]quinoline-8-carbonitrile] is 1.5-fold lower in IC50: 373 nM for the first, 245 nM for the second.

Going from N#Cc1ccc(N2C[C@@H](CN3CCC4(CCNCC4)CC3)[C@H](C(F)F)C2)c2cccnc12 (relative stereo) [Example 27, 5-[Trans-3-(3,9-diazaspiro[5.5]undecan-3-ylmethyl)-4-(difluoromethyl)pyrrolidin-1-yl]quinoline-8-carbonitrile] to N#Cc1ccc(N2C[C@H](CN3CCC4(CCNC4)C3)[C@@H](C(F)(F)F)C2)c2cccnc12 (stereo partly drawn) [Example 9, 5-[(3S,4R)-3-(2,7-diazaspiro[4.4]nonan-2-ylmethyl)-4-(trifluoromethyl)pyrrolidin-1-yl]quinoline-8-carbonitrile], the IC50 falls from 454 nM to 47 nM (9.7-fold).

Compared with N#Cc1ccc(N2C[C@H](CN3CC4(CCCNC4)C3)[C@@H](C(F)(F)F)C2)c2cccnc12 [Example 8, 5-[(3S,7R)-3-(2,8-diazaspiro[3.5]nonan-2-ylmethyl)-4-(trifluoromethyl)pyrrolidin-1-yl]quinoline-8-carbonitrile], CC[C@@H]1CN(c2ccc(C#N)c3ncccc23)C[C@H]1CN1CCC2(CCNC2)C1 (relative stereo) [Example 29, 5-[Trans-3-(2,7-diazaspiro[4.4]nonan-2-ylmethyl)-4-ethyl-pyrrolidin-1-yl]quinoline-8-carbonitrile] is 3.6-fold higher in IC50: 55 nM for the first, 197 nM for the second. The first is the more potent here.

Compared with N#Cc1ccc(N2C[C@H](CN3CCC(N)C(F)(F)C3)[C@@H](C(F)(F)F)C2)c2nccnc12 (stereo partly drawn) [Example 64, 8-[(3S,4R)-3-[(4-amino-3,3-difluoro-1-piperidyl)methyl]-4-(trifluoromethyl)pyrrolidin-1-yl]quinoxaline-5-carbonitrile], N#Cc1ccc(N2C[C@H](CN3CCC(N)CC3)[C@@H](C(F)(F)F)C2)c2nccnc12 [Example 26, 8-[(3S,4R)-3-[(4-Amino-1-piperidyl)methyl]-4-(trifluoromethyl)pyrrolidin-1-yl]quinoxaline-5-carbonitrile] is 4.1-fold lower in IC50: 86 nM for the first, 21 nM for the second.

Going from N#Cc1ccc(N2CC(CN3CC4(CC(N)C4)C3)C3(CC3)C2)c2nccnc12 (stereo not drawn) [Example 42, 8-[7-[(6-Amino-2-azaspiro[3.3]heptan-2-yl)methyl]-5-azaspiro[2.4]heptan-5-yl]quinoxaline-5-carbonitrile] to N#Cc1ccc(N2C[C@H](CN3CC4CCC(C3)C4N)[C@@H](C(F)(F)F)C2)c2nccnc12 (stereo partly drawn) [Example 73, 8-[(3S,4R)-3-[(8-amino-3-azabicyclo[3.2.1]octan-3-yl)methyl]-4-(trifluoromethyl)pyrrolidin-1-yl]quinoxaline-5-carbonitrile], the IC50 falls from 161 nM to 35 nM (4.6-fold).

Going from CN(C)C[C@@H]1CCN(C[C@H]2CN(c3ccc(C#N)c4nccnc34)C[C@@H]2C(F)(F)F)C1 [Example 82, 8-[(3S,4R)-3-[[(3S)-3-[(dimethylamino)methyl]pyrrolidin-1-yl]methyl]-4-(trifluoromethyl)pyrrolidin-1-yl]quinoxaline-5-carbonitrile] to N#Cc1ccc(N2C[C@H](CN3CCC(N4CCCCC4)CC3)[C@@H](C(F)(F)F)C2)c2cccnc12 [Example 10, 5-[(3S,4R)-3-[[4-(1-piperidyl)-1-piperidyl]methyl]-4-(trifluoromethyl)pyrrolidin-1-yl]quinoline-8-carbonitrile], the IC50 falls from 108 nM to 52 nM (2.1-fold). The second is the more potent here.
